The source of these data is patent US12441733B2, “Substituted 2,4-dioxotetrahydropyrimidines as intermediates in the synthesis of bruton's tyrosine kinase inhibitors” (Novartis AG, priority 2018, dated 2025).

Where two headings read alike, the source gives them in different places. A value given as a limit tells only on which side of the number the result lay.

Type in all cases: cell-based
In experiment [1] the target is T1, BTK-GFP (Homo sapiens, UniProt Q06187+Q96SW2).
T1 construct: expressed in transfected cells; host or cells: HEK293A (Invitrogen R70507), lentiviral transduction with pLenti6-BTK-GFP-Ires-RFP, blasticidin selection
In words: BTK-GFP protein abundance flow cytometry assay in HEK293A cells. The following applies: HEK293A BTK-GFP-iresRFP cells, 24 h; for DC50: GFP signal by flow cytometry, concentration at which 50% maximal degradation was observed; for BTK deg Amax: % protein remaining at the concentration at which maximum degradation is seen. Put shortly: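 HEK293A cells stably expressing bicistronic BTK-GFP-IRES-RFP (C-terminal GFP tag) via lentiviral vector. Degradation read by flow cytometry as loss of GFP signal after degrader treatment. DC50 is concentration giving 50% maximal degradation; Amax is % protein remaining at maximal degradation.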

Experiment [2] has as its system TMD8 cells. In words: Resazurin cell viability (proliferation) assay in TMD8 DLBCL cells. The following applies: TMD8 cells (BTK dependent), 72 h, 50% growth inhibition vs vehicle, read-out: TMD8 Prol GI50. An outline of the steps:
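TMD8 cells were seeded at 1×10^4 per well and treated 3 h later with compound, in an 8-point 1:4 dilution series starting at 1 μM, or DMSO, for 72 h at 37° C. Resazurin was added at 13 μg/ml final for the last 2 h, and fluorescence was read at ex 530/em 600 nm. GI50 versus vehicle was derived by curve fitting from triplicates.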

Experiment [3] concerns OCI-LY3 cells. In words: Resazurin cell viability (proliferation) assay in OCI-LY3 DLBCL cells. Particulars: OCI-LY3 cells (BTK independent), 72 h, 50% growth inhibition vs vehicle, read-out: OCI-LY3 Prol GI50. An outline of the steps: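 Cells were seeded at 1×10^4 per well and dosed 3 h later: 8-point 1:4 dilutions from 10 μM (OCI-LY3), in triplicate, 72 h at 37 °C. Resazurin (13 μg/ml final) was added for the last 2 h and fluorescence read at 530/600 nm. GI50 is relative to DMSO vehicle, typically from ≥2 independent experiments.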

T1 sequence (Q06187 whole entry): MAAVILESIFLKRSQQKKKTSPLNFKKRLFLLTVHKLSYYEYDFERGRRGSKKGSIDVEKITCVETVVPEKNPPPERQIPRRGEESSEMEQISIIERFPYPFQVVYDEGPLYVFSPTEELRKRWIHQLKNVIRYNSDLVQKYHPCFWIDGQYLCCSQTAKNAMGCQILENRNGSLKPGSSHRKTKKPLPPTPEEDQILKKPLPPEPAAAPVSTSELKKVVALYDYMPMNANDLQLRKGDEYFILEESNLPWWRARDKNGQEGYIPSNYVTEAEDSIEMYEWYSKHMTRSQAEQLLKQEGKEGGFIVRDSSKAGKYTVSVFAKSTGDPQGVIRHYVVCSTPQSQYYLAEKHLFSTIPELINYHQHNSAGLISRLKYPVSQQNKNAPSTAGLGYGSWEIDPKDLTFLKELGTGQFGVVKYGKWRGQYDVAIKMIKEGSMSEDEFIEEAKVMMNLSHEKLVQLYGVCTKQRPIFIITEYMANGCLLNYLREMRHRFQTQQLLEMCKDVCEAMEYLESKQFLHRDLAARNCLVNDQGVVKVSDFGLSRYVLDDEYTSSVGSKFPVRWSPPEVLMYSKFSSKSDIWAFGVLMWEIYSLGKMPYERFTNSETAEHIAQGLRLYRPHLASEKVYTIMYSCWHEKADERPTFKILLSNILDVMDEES
T1 sequence (Q96SW2 whole entry): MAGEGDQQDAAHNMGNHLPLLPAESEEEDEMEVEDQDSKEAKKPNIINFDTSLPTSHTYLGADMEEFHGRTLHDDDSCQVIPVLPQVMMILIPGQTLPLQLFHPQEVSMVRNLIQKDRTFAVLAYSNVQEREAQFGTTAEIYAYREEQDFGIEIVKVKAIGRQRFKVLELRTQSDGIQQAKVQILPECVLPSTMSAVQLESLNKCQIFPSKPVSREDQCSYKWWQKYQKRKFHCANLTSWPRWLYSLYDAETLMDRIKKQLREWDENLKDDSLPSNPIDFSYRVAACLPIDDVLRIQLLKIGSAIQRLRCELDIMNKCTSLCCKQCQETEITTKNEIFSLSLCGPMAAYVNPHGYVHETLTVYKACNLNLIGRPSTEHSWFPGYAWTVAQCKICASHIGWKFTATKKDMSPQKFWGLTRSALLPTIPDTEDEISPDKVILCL
T1 sequence (Q16531 whole entry partner): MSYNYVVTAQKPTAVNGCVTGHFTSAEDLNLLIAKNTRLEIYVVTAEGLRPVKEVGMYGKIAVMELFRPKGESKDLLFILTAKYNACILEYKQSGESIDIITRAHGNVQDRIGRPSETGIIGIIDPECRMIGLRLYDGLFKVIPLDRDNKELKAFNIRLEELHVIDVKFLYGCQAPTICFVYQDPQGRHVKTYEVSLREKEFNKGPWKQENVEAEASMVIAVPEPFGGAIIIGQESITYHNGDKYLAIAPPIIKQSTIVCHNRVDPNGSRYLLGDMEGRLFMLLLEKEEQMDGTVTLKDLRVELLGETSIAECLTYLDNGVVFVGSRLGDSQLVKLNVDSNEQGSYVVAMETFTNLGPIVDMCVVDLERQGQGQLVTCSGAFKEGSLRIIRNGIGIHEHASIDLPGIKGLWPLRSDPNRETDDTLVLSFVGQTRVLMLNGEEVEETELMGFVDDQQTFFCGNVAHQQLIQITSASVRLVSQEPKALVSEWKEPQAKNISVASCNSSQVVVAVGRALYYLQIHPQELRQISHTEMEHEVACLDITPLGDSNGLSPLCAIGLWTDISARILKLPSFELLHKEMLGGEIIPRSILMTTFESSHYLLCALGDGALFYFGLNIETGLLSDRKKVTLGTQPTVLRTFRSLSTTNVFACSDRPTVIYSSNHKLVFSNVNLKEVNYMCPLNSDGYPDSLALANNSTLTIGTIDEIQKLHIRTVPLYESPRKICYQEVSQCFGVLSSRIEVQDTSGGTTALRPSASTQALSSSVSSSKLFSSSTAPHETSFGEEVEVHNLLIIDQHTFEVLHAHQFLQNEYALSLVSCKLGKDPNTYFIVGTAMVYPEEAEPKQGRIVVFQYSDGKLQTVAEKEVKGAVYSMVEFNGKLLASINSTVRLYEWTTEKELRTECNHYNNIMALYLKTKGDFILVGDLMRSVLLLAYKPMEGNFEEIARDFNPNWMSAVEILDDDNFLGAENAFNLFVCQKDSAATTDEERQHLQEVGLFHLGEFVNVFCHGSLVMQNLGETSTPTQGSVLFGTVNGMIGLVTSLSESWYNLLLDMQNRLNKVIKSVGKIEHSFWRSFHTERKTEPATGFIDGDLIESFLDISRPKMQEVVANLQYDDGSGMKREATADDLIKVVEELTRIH

For the molecule `COc1ccc(C(=O)N2CC3(CCN(Cc4ccc(-c5cc6c(-c7cc(F)cc(NC(=O)c8ccc(C(C)(C)O)cc8F)c7C)ncnc6[nH]5)cc4)CC3)C2)cc1N1CCC(=O)NC1=O` [Compound 32], half-maximal degradation in experiment [1] (DC50) was put at 34.2 nM. The “BTK deg Amax” value in experiment [1] is 15.4%. Also, the GI50 worked out at 6.31 nM in experiment [2] (Homo sapiens) and 7440 nM in experiment [3] (Homo sapiens).
In the case of `Cc1c(NC(=O)c2ccc(C(C)(C)O)cc2F)cc(F)cc1-c1ncnc2[nH]c(-c3ccc(CNCCCCCN(C)C(=O)c4ccc(Cl)c(N5CCC(=O)NC5=O)c4)cc3)cc12` [Compound 42, 4-chloro-3-(2,4-dioxotetrahydropyrimidin-1(2H)-yl)-N-(5-((4-(4-(5-fluoro-3-(2-fluoro-4-(2-hydroxypropan-2-yl)benzamido)-2-methylphenyl)-7H-pyrrolo[2,3-d]pyrimidin-6-yl)benzyl)amino)pentyl)-N-methylbenzamide], in experiment [1], half-maximal degradation (DC50) was put at 59.5 nM and the “BTK deg Amax” value was 8.8%. The GI50 in experiment [2] (Homo sapiens) stood at 5.34 nM. In experiment [3] (Homo sapiens), the concentration for 50% growth inhibition (GI50) stood at 8920 nM.
As to `COc1ccc(C(=O)N2CCN(CCN3CCC(COc4ccc(-c5cc6c(-c7cc(F)cc(NC(=O)c8ccc(C(C)(C)O)cc8F)c7C)ncnc6[nH]5)cc4)CC3)CC2)cc1N1CCC(=O)NC1=O` [Compound 51, N-(3-(6-(4-((1-(2-(4-(3-(2,4-dioxotetrahydropyrimidin-1(2H)-yl)-4-methoxybenzoyl)piperazin-1-yl)ethyl)piperidin-4-yl)methoxy)phenyl)-7H-pyrrolo[2,3-d]pyrimidin-4-yl)-5-fluoro-2-methylphenyl)-2-fluoro-4-(2-hydroxypropan-2-yl)benzamide], in experiment [1], the DC50 was 0.8 nM and the “BTK deg Amax” value amounted to 3.9%. Also, the GI50 in experiment [2] (Homo sapiens) stood at 0.58 nM. Further, in experiment [3] (Homo sapiens), the GI50 was determined as 4370 nM.
`COc1ccc(C(=O)NCCN2CCC3(CCN(Cc4ccc(-c5cc6c(-c7cc(F)cc(NC(=O)c8ccc(C(C)(C)O)cc8F)c7C)ncnc6[nH]5)cc4)CC3)C2)cc1N1CCC(=O)NC1=O` [Compound 53, N-(3-(6-(4-((2-(2-(3-(2,4-dioxotetrahydropyrimidin-1(2H)-yl)-4-methoxybenzamido)ethyl)-2,8-diazaspiro[4.5]decan-8-yl)methyl)phenyl)-7H-pyrrolo[2,3-d]pyrimidin-4-yl)-5-fluoro-2-methylphenyl)-2-fluoro-4-(2-hydroxypropan-2-yl)benzamide]: in experiment [1], the DC50 is 150 nM and the “BTK deg Amax” value came out at 17.4%. In experiment [2] (Homo sapiens), the 50% growth inhibitory concentration (GI50) is 3.14 nM. Besides, the GI50 in experiment [3] (Homo sapiens) was over 10000 nM.
On to `COc1ccc(C(=O)N2CCC(CCCN3CCC(Oc4ccc(-c5cc6c(-c7cc(F)cc(NC(=O)c8ccc(C(C)(C)O)cc8F)c7C)ncnc6[nH]5)cc4)CC3)CC2)cc1N1CCC(=O)NC1=O` [Compound 15, N-(3-(6-(4-((1-(3-(1-(3-(2,4-Dioxotetrahydropyrimidin-1(2H)-yl)-4-methoxybenzoyl)piperidin-4-yl)propyl)piperidin-4-yl)oxyl)phenyl)-7H-pyrrolo[2,3-d]pyrimidin-4-yl)-5-fluoro-2-methylphenyl)-2-fluoro-4-(2-hydroxypropan-2-yl)benzamide], for which, in experiment [1], it took 0.4 nM to reach half-maximal degradation (DC50). The “BTK deg Amax” value in experiment [1] was determined as 1.6%. Besides, the GI50 came out at 0.56 nM in experiment [2] (Homo sapiens) and 3380 nM in experiment [3] (Homo sapiens).
As for `COc1ccc(C(=O)N2CCC(CCN3CCC(COc4ccc(-c5cc6c(-c7cc(F)cc(NC(=O)c8ccc(C(C)(C)O)cc8F)c7C)ncnc6[nH]5)cc4)CC3)CC2)cc1N1CCC(=O)NC1=O` [Compound 43, N-(3-(6-(4-((1-(2-(1-(3-(2,4-dioxotetrahydropyrimidin-1(2H)-yl)-4-methoxybenzoyl)piperidin-4-yl)ethyl)piperidin-4-yl)methoxy)phenyl)-7H-pyrrolo[2,3-d]pyrimidin-4-yl)-5-fluoro-2-methylphenyl)-2-fluoro-4-(2-hydroxypropan-2-yl)benzamide], in experiment [1], the 50% degradation concentration (DC50) was 1 nM and the “BTK deg Amax” value was found to be 2.3%. Besides, the GI50 in experiment [2] (Homo sapiens) was 0.68 nM. Besides, the GI50 in experiment [3] (Homo sapiens) turned out to be 3340 nM.
For the molecule `COc1ccc(C(=O)N2CCC3(CCN(Cc4ccc(-c5cc6c(-c7cc(F)cc(NC(=O)c8ccc(C(C)(C)O)cc8F)c7C)ncnc6[nH]5)cc4)CC3CO)CC2)cc1N1CCC(=O)NC1=O` (racemic) [Compound 23, rac-N-(3-(6-(4-((9-(3-(2,4-Dioxotetrahydropyrimidin-1(2H)-yl)-4-methoxybenzoyl)-1 (hydroxymethyl)-3,9-diazaspiro[5.5]undecan-3-yl)methyl)phenyl)-7H-pyrrolo[2,3-d]pyrimidin-4-yl)-5-fluoro-2-methylphenyl)-2-fluoro-4-(2-hydroxypropan-2-yl)benzamide], in experiment [1], the 50% degradation concentration (DC50) is 46.8 nM and the “BTK deg Amax” value came out at 10.4%. Besides, the GI50 in experiment [2] (Homo sapiens) worked out at 5.35 nM. In addition, the GI50 in experiment [3] (Homo sapiens) is over 10000 nM.
On to `COc1ccc(C(=O)N2CCC(CCN3CCC(Oc4ccc(-c5cc6c(-c7cc(F)cc(NC(=O)c8ccc(C(C)(C)O)cc8F)c7C)ncnc6[nH]5)cc4)CC3)CC2)cc1N1CCC(=O)NC1=O` [Compound 38, N-(3-(6-(4-((1-(2-(1-(3-(2,4-dioxotetrahydropyrimidin-1(2H)-yl)-4-methoxybenzoyl)piperidin-4-yl)ethyl)piperidin-4-yl)oxy)phenyl)-7H-pyrrolo[2,3-d]pyrimidin-4-yl)-5-fluoro-2-methylphenyl)-2-fluoro-4-(2-hydroxypropan-2-yl)benzamide], for which, in experiment [1], the half-maximal degradation concentration (DC50) is 0.9 nM and the “BTK deg Amax” value stood at 4.1%. Also, the GI50 in experiment [2] (Homo sapiens) came out at 0.51 nM. For the same molecule, the GI50 in experiment [3] (Homo sapiens) is 4440 nM.
For the molecule `COc1ccc(C(=O)N2CCC(O[C@H]3CC[C@@H](Oc4ccc(-c5cc6c(-c7cc(F)cc(NC(=O)c8ccc(C(C)(C)O)cc8F)c7C)ncnc6[nH]5)cc4)CC3)CC2)cc1N1CCC(=O)NC1=O` [Compound 54, N-(3-(6-(4-(((1s,4s)-4-((1-(3-(2,4-dioxotetrahydropyrimidin-1(2H)-yl)-4-methoxybenzoyl)piperidin-4-yl)oxy)cyclohexyl)oxy)phenyl)-7H-pyrrolo[2,3-d]pyrimidin-4-yl)-5-fluoro-2-methylphenyl)-2-fluoro-4-(2-hydroxypropan-2-yl)benzamide], in experiment [1], it took 1.5 nM to reach half-maximal degradation (DC50) and the “BTK deg Amax” value came out at 4.4%. For the same molecule, the concentration for 50% growth inhibition (GI50) in experiment [2] was found to be 3.56 nM. In experiment [3], the concentration for 50% growth inhibition (GI50) was over 10000 nM.
As for `COc1ccc(C(=O)N2CCC(CCN3CCN(Cc4ccc(-c5cc6c(-c7cc(F)cc(NC(=O)c8ccc(C(C)(C)O)cc8F)c7C)ncnc6[nH]5)cc4)CC3)CC2)cc1N1CCC(=O)NC1=O` [Compound 17, N-(3-(6-(4-((4-(2-(1-(3-(2,4-Dioxotetrahydropyrimidin-1(2H)-yl)-4-methoxybenzoyl)piperidin-4-yl)ethyl)piperazin-1-yl)methyl)phenyl)-7H-pyrrolo[2,3-d]pyrimidin-4-yl)-5-fluoro-2-methylphenyl)-2-fluoro-4-(2-hydroxypropan-2-yl)benzamide], in experiment [1], the half-maximal degradation concentration (DC50) is 2.3 nM and the “BTK deg Amax” value was 11.0%. Also, in experiment [2] (Homo sapiens), the 50% growth inhibitory concentration (GI50) was found to be 0.5 nM. Further, in experiment [3] (Homo sapiens), the GI50 is 4140 nM.
In the same order, the values of `Cc1c(NC(=O)c2ccc(C(C)(C)O)cc2F)cc(F)cc1-c1ncnc2[nH]c(-c3ccc(CN4CCC5(CC4)CN(CCCNC(=O)c4ccc(Cl)c(N6CCC(=O)NC6=O)c4)CCO5)cc3)cc12` [Compound 48, N-(3-(6-(4-((4-(3-(4-chloro-3-(2,4-dioxotetrahydropyrimidin-1(2H)-yl)benzamido)propyl)-1-oxa-4,9-diazaspiro[5.5]undecan-9-yl)methyl)phenyl)-7H-pyrrolo[2,3-d]pyrimidin-4-yl)-5-fluoro-2-methylphenyl)-2-fluoro-4-(2-hydroxypropan-2-yl)benzamide] are 20.8 nM, 9.4%, 2.23 nM and 3600 nM.
As for `COc1ccc(C(=O)N2CCC3(CCN(Cc4ccc(-c5cc6c(-c7cc(F)cc(NC(=O)c8ccc(C(C)(C)O)cc8F)c7C)ncnc6[nH]5)cc4)CC3)C2)cc1N1CCC(=O)NC1=O` [Compound 55, N-(3-(6-(4-((2-(3-(2,4-dioxotetrahydropyrimidin-1(2H)-yl)-4-methoxybenzoyl)-2,8-diazaspiro[4.5]decan-8-yl)methyl)phenyl)-7H-pyrrolo[2,3-d]pyrimidin-4-yl)-5-fluoro-2-methylphenyl)-2-fluoro-4-(2-hydroxypropan-2-yl)benzamide], in experiment [1], the DC50 is over 124 nM and the “BTK deg Amax” value turned out to be 53.8%. In addition, the concentration for 50% growth inhibition (GI50) in experiment [2] (Homo sapiens) was 7.01 nM. In addition, the 50% growth inhibitory concentration (GI50) in experiment [3] (Homo sapiens) was determined as 7940 nM.
